# Molecular target: Tryptophan 5-hydroxylase 1 (Homo sapiens) (UniProt P17752)
# Experiment: Inhibition of TPH1 in human BON cells assessed as inhibition of serotonin biosynthesis
# Sequence of Tryptophan 5-hydroxylase 1 (Homo sapiens) (P17752 whole entry, looked up): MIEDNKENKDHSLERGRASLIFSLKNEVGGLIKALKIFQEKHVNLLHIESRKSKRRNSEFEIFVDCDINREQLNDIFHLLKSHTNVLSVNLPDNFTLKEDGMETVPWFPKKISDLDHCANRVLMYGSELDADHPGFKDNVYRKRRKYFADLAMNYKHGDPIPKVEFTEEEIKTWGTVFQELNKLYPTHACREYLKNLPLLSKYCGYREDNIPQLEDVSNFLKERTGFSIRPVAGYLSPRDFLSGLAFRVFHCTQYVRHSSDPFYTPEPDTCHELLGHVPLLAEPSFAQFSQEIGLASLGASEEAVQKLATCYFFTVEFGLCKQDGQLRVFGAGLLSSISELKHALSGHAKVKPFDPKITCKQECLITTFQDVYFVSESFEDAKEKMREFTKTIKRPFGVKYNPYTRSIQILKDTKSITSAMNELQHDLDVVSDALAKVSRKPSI
row,Structure (SMILES),EC50 [nM]
1,Cc1cccc(-c2ccccc2C(Oc2cc(-c3ccc(C[C@H](N)C(=O)O)cc3)nc(N)n2)C(F)(F)F)c1 (some centres undefined),560
2,Nc1nc(OC(c2ccccc2-c2ccco2)C(F)(F)F)cc(-c2ccc(C[C@H](N)C(=O)O)cc2)n1 (some centres undefined),800
3,Nc1nc(OC(c2ccccc2-n2ccc(C(F)(F)F)n2)C(F)(F)F)cc(-c2ccc(C[C@H](N)C(=O)O)cc2)n1 (some centres undefined),750
4,Nc1nc(OC(c2sccc2-c2ccco2)C(F)(F)F)cc(-c2ccc(C[C@H](N)C(=O)O)cc2)n1 (some centres undefined),1190
